# Reference: article PMC11050599, “Novel Tetracyclic Azaphenothiazines with the Quinoline Ring as New Anticancer and Antibacterial Derivatives of Chlorpromazine” (International Journal of Molecular Sciences, 2024)
# Like-named read-outs stand apart in the source and are kept apart here.
# How the values were obtained:
# [1] = tested on: HaCaT (immortalized human keratinocytes); test: MTT assay, HaCaT normal cells; format: cell-based; details: Homo sapiens, HaCaT, MTT, 72 h, normal cells
# Protocol: (§1) The human cell lines, such as A549 (lung cancer), MDA-MB-231 (breast cancer), MiaPaca-2 (pancreatic cancer), PC3 (metastatic prostate cancer), HCT-116 (colon carcinoma), and HaCaT (immortalized keratinocytes), were sourced from the American Type Culture Collection (ATCC) in Rockville, USA. Culturing conditions varied as follows: HCT116 cells were cultured in MEM (ThermoSci, Waltham, MA, USA), A549, MDA-MB-231, MiaPaca, HaCaT cells in DMEM High Glucose and PC3 cells were cultured in RPMI (Biowest SAS, Nuaillé, France). The growth medium consisted of 10% fetal bovine serum (FBS, Sigma-Aldrich, St. Louis, MO, USA), 20 mM HEPES (Biowest, Nuaillé, France), and antibiotics (100 U/mL of penicillin and 100 μg/mL of streptomycin) from Gibco, Grand Island, NY, USA. […] These compounds were added to 96-well plates containing study cells (1 × 10^4 cells per well) and incubated for 72 h. […] Cell absorbance results were incorporated into the formula for calculating the relative MTT level (%), enabling the assessment of cell viability following exposure to the test compounds. The cell viability percentage represents the MTT reduction in cells treated with the test compounds compared to the control sample, where only the medium was added to the cells.
# PC3 (prostate cancer) = test: MTT assay, PC3 cells; format: cell-based, human
# Protocol: as §1
# [2] = tested on: S. epidermidis ATCC 12228; test: MIC broth microdilution; format: cell-based; details: Staphylococcus epidermidis, ATCC12228; 19 h, 35 °C; read-out: MIC S. epidermidis ATCC 12228
# From the text: (§2) To evaluate the antibacterial effectiveness of chloroquinobenzothiazine derivatives, various bacterial strains from international microbe collections such as the American Type Culture Collection (ATCC) and the National Collection of Type Culture (NCTC) were examined, alongside a panel of clinical rods. This included two Gram-negative organisms, E. coli ATCC 25922 and P. aeruginosa ATCC 15442, and a series of six Gram-positive strains: S. aureus NCTC 4163; S. aureus ATCC 29213, 25923, and 6538; and S. epidermidis ATCC 12228 and 35984. […] The MIC was determined using the two-fold serial broth microdilution method in 96-well microtitration plates containing Mueller-Hinton II broth medium (Becton Dickinson, Franklin Lakes, NJ, USA). The final inoculum for all tested bacteria was adjusted to […] (colony-forming units per milliliter). The stock solution of the tested compounds was prepared in dimethyl sulfoxide (DMSO) and diluted to a maximum of 1% solvent content with a sterile medium.
# S. aureus NCTC 4163 = test: MIC broth microdilution; format: cell-based; details: Staphylococcus aureus, NCTC4163; 19 h, 35 °C; read-out: MIC S. aureus NCTC 4163
# From the text: as §2
# [3] = tested on: S. epidermidis ATCC 35984; test: MIC broth microdilution; format: cell-based; details: Staphylococcus epidermidis, ATCC35984; 19 h, 35 °C; read-out: MIC S. epidermidis ATCC 35984
# From the text: as §2
# P. aeruginosa ATCC 15442 = test: MIC broth microdilution; format: cell-based; details: Pseudomonas aeruginosa, ATCC15442; 19 h, 35 °C; read-out: MIC P. aeruginosa ATCC 15442
# From the text: as §2
# S. aureus ATCC 25923 = test: MIC broth microdilution; format: cell-based; details: Staphylococcus aureus, ATCC25923; 19 h, 35 °C; read-out: MIC S. aureus ATCC 25923
# From the text: as §2
# E. coli ATCC 25922 = test: MIC broth microdilution; format: cell-based; details: Escherichia coli, ATCC25922; 19 h, 35 °C; read-out: MIC E. coli ATCC 25922
# From the text: as §2
# S. aureus ATCC 6538 = test: MIC broth microdilution; format: cell-based; details: Staphylococcus aureus, ATCC6538; 19 h, 35 °C; read-out: MIC S. aureus ATCC 6538
# From the text: as §2
# S. aureus ATCC 29213 = test: MIC broth microdilution; format: cell-based; details: Staphylococcus aureus, ATCC29213; 19 h, 35 °C; read-out: MIC S. aureus ATCC 29213
# From the text: as §2
# [4] = tested on: MDA-MB-231 (breast cancer); test: MTT assay, MDA-MB-231 cells; format: cell-based, human; details: for IC50: Homo sapiens, MDA-MB-231, MTT, 72 h, MDA-MB231, read-out: IC50 MDA; for SI MDA: SI = IC50 for normal cell line (HaCaT)/IC50 cancer cell line
# Protocol: as §1
# A549 (lung cancer) = test: MTT assay, A549 cells; format: cell-based, human; details: for IC50: Homo sapiens, A549, MTT, 72 h, mean SD, read-out: IC50 A549; for SI A549: SI = IC50 for normal cell line (HaCaT)/IC50 cancer cell line
# Protocol: as §1
# HCT116 (colon cancer) = test: MTT assay, HCT116 cells; format: cell-based, human
# Protocol: as §1
# [5] = tested on: MiaPaCa-2 (pancreas cancer); test: MTT assay, MiaPaCa-2 cells; format: cell-based, human
# Protocol: as §1
# [6] = SI = IC50 for normal cell line (HaCaT)/IC50 cancer cell line
"IC50 (PC3 (prostate cancer); Homo sapiens, PC-3, MTT, 72 h, read-out: IC50 PC3)",MIC [2],MIC (S. aureus NCTC 4163),MIC [3],MIC (P. aeruginosa ATCC 15442),MIC (S. aureus ATCC 25923),MIC (E. coli ATCC 25922),MIC (S. aureus ATCC 6538),MIC (S. aureus ATCC 29213),IC50 [4],IC50 (A549 (lung cancer)),"IC50 (HCT116 (colon cancer); Homo sapiens, HCT-116, MTT, 72 h, read-out: IC50 HCT116)","IC50 ([5]; Homo sapiens, MIA PaCa-2, MTT, 72 h, read-out: IC50 MiaPaCa-2)",Structure (SMILES),IC50 ([1]; read-out: IC50 HaCaT (Table 3)),IC50 ([1]; read-out: IC50 HaCaT (Table 4)),SI PC3 (PC3 (prostate cancer); [6]),SI MDA [4],SI A549 (A549 (lung cancer)),SI HCT116 (HCT116 (colon cancer); [6]),"SI MiaPaCa-2 [5, 6]"
> 100 µM,> 256 µg/mL,> 256 µg/mL,> 256 µg/mL,> 256 µg/mL,> 256 µg/mL,> 256 µg/mL,> 256 µg/mL,> 256 µg/mL,> 100 µM,27.5 ± 6.2 µM,49.6 ± 4.7 µM,37.4 ± 5.6 µM,"Clc1ccc2c(c1)N(Cc1cn(-c3ccccc3)nn1)c1nc3ccccc3cc1S2 [Compound 27, 8-Chloro-6-((1-phenyl-1H-1,2,3-triazol-4-yl)methyl)-quino[3,2-b]benzo[1,4]thiazine]",70.2 ± 10.4 µM,71.7 ± 7.5 µM,1.0,0.7,2.5,1.4,1.9
–,> 256 µg/mL,> 256 µg/mL,> 256 µg/mL,> 256 µg/mL,> 256 µg/mL,> 256 µg/mL,> 256 µg/mL,> 256 µg/mL,> 100 µM,> 100 µM,–,–,"Fc1ccc(Cn2cc(CN3c4cc(Cl)ccc4Sc4cc5ccccc5nc43)nn2)cc1 [Compound 30, 8-chloro-6-((1-(4-fluorobenzyl)-1H-1,2,3-triazol-4-yl)methyl)-quino[3,2-b]benzo[1,4]thiazine]",> 100 µM,–,–,1.0,1.0,–,–
–,> 256 µg/mL,> 256 µg/mL,> 256 µg/mL,> 256 µg/mL,> 256 µg/mL,> 256 µg/mL,> 256 µg/mL,> 256 µg/mL,> 100 µM,> 100 µM,–,–,"N#Cc1ccc(Cn2cc(CN3c4cc(Cl)ccc4Sc4cc5ccccc5nc43)nn2)cc1 [Compound 32, 4-((4-((8-Chloroquino[3,2-b]benzo[1,4]thiazin-6-yl)methyl)-1H-1,2,3-triazol-1-yl)methyl)benzonitrile]",> 100 µM,–,–,1.0,1.0,–,–
–,> 256 µg/mL,> 256 µg/mL,> 256 µg/mL,> 256 µg/mL,> 256 µg/mL,> 256 µg/mL,> 256 µg/mL,> 256 µg/mL,> 100 µM,> 100 µM,–,–,"Clc1ccc2c(c1)N(Cc1cn(CSc3ccccc3)nn1)c1nc3ccccc3cc1S2 [Compound 33, 8-Chloro-6-((1-((phenylthio)methyl)-1H-1,2,3-triazol-4-yl)methyl)-quino[3,2-b]benzo[1,4]thiazine]",> 100 µM,–,–,1.0,1.0,–,–
